Each structure is given as a SMILES string. Some results are limits rather than exact numbers.

For one assay, the system named is HCV replicon. Put plainly: Replicon based assay of HCV replication inhibition (NPT ELISA). It counts as cell-based, Hepatitis C virus. The note with it: Hepatitis C virus, Huh-7, 72 h, Table I; Huh-7 HCV replicon-containing cells, three days; read-out: Activity. In outline:
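NPT (neomycin phosphotransferase) content, proportional to replicon replication, quantified by capture ELISA on day four. Before that, replicon-bearing Huh-7 cells in G418-free screening medium were exposed three days at 37° C to compound, typically six doses from 10 to 0.03 micromolar, with equal DMSO across wells.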
`Clc1ccc(-c2csc(Nc3cccc(OCc4ccccc4)c3)n2)cc1` [compound 30, N-(3-(benzyloxy)phenyl)-4-(4-chlorophenyl)thiazol-2-amine]: the EC50 was less than 1 µM.
On the same count and under the same terms, then `CCCCCOc1ccc(Nc2nccs2)cc1C(F)(F)F` [compound 1, N-(3-(trifluoromethyl)-4-(pentyloxy)phenyl)thiazol-2-amine], with less than 1 µM; and `CN(C(=O)c1csc(-c2cccnc2)n1)c1ccc(Cl)c(Cl)c1` [compound 126, N-(3,4-dichlorophenyl)-N-methyl-2-(pyridin-3-yl)thiazole-4-carboxamide], with more than 10 µM.
Still for that read-out and setting: then `CCCCCOc1ccc(Nc2nc(C(=O)Nc3cccnc3)cs2)cc1C(F)(F)F` [compound 14, 2-(3-(trifluoromethyl)-4-(pentyloxy)phenylamino)-N-(pyridin-3-yl)thiazole-4-carboxamide], with less than 1 µM.

Staying with this assay, now noted: Hepatitis C virus, Huh-7, 72 h, Table III; Huh-7 HCV replicon-containing cells, three days; read-out: Activity.
Take `CCCCCCCCOc1ccc(Nc2nc(-c3ccc4nccn4c3)cs2)cc1C(F)(F)F` [compound 673, N-(3-(trifluoromethyl)-4-(octyloxy)phenyl)-4-(H-imidazo[1,2-a]pyridin-6-yl)thiazol-2-amine]: the EC50 is less than 1 µM.

Still in this assay, the particulars now being: Hepatitis C virus, read-out: Activity.
With `CCCCCCCCOc1cc([N+](=O)[O-])c(Nc2nc(-c3cccnc3)c([N+](=O)[O-])s2)cc1C(F)(F)F` [compound 788, N-(5-(trifluoromethyl)-2-nitro-4-(octyloxy)phenyl)-5-nitro-4-(pyridin-3-yl)thiazol-2-amine], the EC50 lay within 1 to 10 µM.

Staying with this assay, now noted: Hepatitis C virus, replicon based assay of HCV replication inhibition; Table II; read-out: Activity.
`CCCCCOc1ccc(Nc2nc(Cc3cccc(F)c3)cs2)cc1C(F)(F)F` [compound 517, 4-(3-fluorobenzyl)-N-(3-(trifluoromethyl)-4-(pentyloxy)phenyl)thiazol-2-amine]: the EC50 was 1 to 10 µM.
On the same count and under the same terms, then `CCCCCCCCOc1ccc(Nc2nc(CN3CCN(Cc4ccccn4)CC3)cs2)cc1` [compound 313], with 1 to 10 µM.
On the same count and under the same terms, then `CCCCCCCCOc1ccc(Nc2nc(CN3CCC(C(N)=O)CC3)cs2)cc1` [compound 315, 1-((2-(4-(octyloxy)phenylamino)thia-zol-4-yl)methyl)piperidine-4-carboxammide], with 1 to 10 µM.
Same read-out and setting: the same measure for `CCCCCOc1ccc(Nc2nc(CN3CCC(CO)CC3)cs2)cc1F` [compound 292, (1-((2-(3-fluoro-4-(pentyloxy)phenylamino)thia-zol-4-yl)methyl)piperidin-4-yl)methanol]: 1 to 10 µM; for `CCCCCOc1ccc(Nc2nc(CN3CCC[C@@H]3C(=O)O)cs2)cc1F` [compound 294, (R)-1-((2-(3-fluoro-4-(pentyloxy)phenylamino)thia-zol-4-yl)methyl)pyrrolidine-2-carboxylic acid]: 1 to 10 µM; for `CCCCCOc1ccc(Nc2nc(-c3cccs3)cs2)cc1C(F)(F)F` [compound 358, N-(4-(pentyloxy)-3-(trifluoromethyl)phenyl)-4-(thiophen-2-yl)thiazol-2-amine]: less than 1 µM.
`CCCCCOc1ccc(Nc2nc(-c3c(C)cc(C)nc3C)cs2)cc1C(F)(F)F` [compound 445, N-(3-(trifluoromethyl)-4-(pentyloxy)phenyl)-4-(2,4,6-trimethylpyridin-3-yl)thiazol-2-amine]: the EC50 is more than 10 µM.

The same assay, now with this note: Hepatitis C virus, replicon based assay of HCV replication inhibition; Table IV; read-out: Activity.
In the case of `c1cncc(-c2csc(Nc3ccc4ncsc4c3)n2)c1` [compound 753, N-(4-(pyridin-3-yl)thiazol-2-yl)benzo[d]thiazol-6-amine], the EC50 was more than 10 µM.
The same measure, in the same setting: then `COC(=O)c1sc(-c2ccccc2)cc1Nc1nc(-c2cccnc2)cs1` [compound 744, methyl 3-(4-(pyridin-3-yl)thiazol-2-ylamino)-5-phenylthiophene-2-carboxylate], with more than 10 µM; and `Fc1cc(Nc2nc(-c3cccnc3)cs2)ccc1OCCCc1ccco1` [compound 861, N-(4-(3-(furan-2-yl)propoxy)-3-fluorophenyl)-4-(pyridin-3-yl)thiazol-2-amine], with less than 1 µM.
Same read-out and setting: then `CCN(CC)CCOC(=O)c1ccc(Nc2nc(-c3cccnc3)cs2)cc1` [compound 758, 2-(diethylamino)ethyl 4-(4-(pyridin-3-yl)thiazol-2-ylamino)benzoate], with more than 10 µM.
